Laboratory results: patent EP1007066B1, “SCREENING METHODS FOR GLUCOCORTICOID RECEPTOR BINDING SUBSTANCES USING TRYPTERYGIUM WILFORDII PREPARATIONS” (priority 1996, dated 1998)
≈ marks a conversion by molar mass, not a printed value.

Columns and labels:
IDH4 cells = experiment: Dexamethasone dependent growth of IDH4 cells (3H-thymidine); assay type: cell-based, human; details: for [3H]-thymidine incorporation of IDH4 cells: without stimulation 16,391; for dexamethasone dependent growth of IDH4 cells: 72 hours
Experimental: IDH4 cells, that express endogenous glucocorticoid receptors, were produced by transfecting human fibroblasts with a plasmid containing the MMTV-long terminal repeat driving the SV40 large T antigen. Since extended growth of these cells is dependent on expression of the large T antigen, these cells require exogenous glucocorticoid to maintain proliferation.
[^3H]-Thymidine was present for the last 16 h. Data represent the mean % inhibition of [^3H]-thymidine incorporation of three replicate determinations of three separate experiments.

human GR = target: T1, human GR (Homo sapiens, UniProt P04150); experiment: GR mediated gene activation, MMTV-luciferase in COS-7 cells, with dexamethasone; assay type: cell-based; details: for GR-mediated activation of target gene (MMTV-luciferase): dexamethasone-induced
T1 construct: host or cells: COS-7
T1 sequence (P04150 1-777): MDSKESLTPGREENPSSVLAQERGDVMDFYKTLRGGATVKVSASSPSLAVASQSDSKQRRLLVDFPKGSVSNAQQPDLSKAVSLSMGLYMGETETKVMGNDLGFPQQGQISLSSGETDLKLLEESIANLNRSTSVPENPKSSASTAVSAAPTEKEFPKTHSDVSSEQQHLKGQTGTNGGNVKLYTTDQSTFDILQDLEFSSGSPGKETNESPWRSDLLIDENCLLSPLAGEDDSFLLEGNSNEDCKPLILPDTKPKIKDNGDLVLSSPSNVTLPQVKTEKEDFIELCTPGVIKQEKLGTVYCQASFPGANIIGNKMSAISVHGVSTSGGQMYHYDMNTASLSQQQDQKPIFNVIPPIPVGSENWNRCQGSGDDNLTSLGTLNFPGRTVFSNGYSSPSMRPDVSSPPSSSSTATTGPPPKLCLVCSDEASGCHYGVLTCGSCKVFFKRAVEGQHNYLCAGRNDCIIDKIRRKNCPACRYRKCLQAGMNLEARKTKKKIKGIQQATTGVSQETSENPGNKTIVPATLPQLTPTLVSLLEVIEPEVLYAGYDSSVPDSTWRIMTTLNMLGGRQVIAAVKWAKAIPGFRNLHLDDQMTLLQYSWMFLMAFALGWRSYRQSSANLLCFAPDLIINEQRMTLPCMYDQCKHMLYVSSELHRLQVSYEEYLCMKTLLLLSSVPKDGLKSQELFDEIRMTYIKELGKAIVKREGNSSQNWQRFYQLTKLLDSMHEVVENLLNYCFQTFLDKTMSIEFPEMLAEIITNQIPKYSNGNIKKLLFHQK
Experimental: Cell transfections and assays of GR mediated gene activation. COS-7 cells were maintained in culture in DMEM-10% bovine calf serum. […] Cells were plated at 10^6 cells per 10 cm plate. Twenty-four hours later, the cells were transfected with 500 ng pRShGrα, a GR expression vector (obtained from the Salk Institute, La Jolla, CA) and 10 µg of pMMTV-luciferase, a synthetic reporter gene. However, other expression vectors and synthetic reporter genes available to those of skill in the art may be used for transfection. The vector pMMTV-luciferase contains the luciferase gene under regulatory control of glucocorticoid-inducible elements in the MMTV-long terminal repeat. Cells were transfected using the calcium-phosphate precipitation technique (mammalian transfection kit, Stratagene, La Jolla, CA). […] Twenty-four hours later, the cells were washed, harvested, and lysates prepared by three cycles of freeze/thawing. The lysates were cleared by centrifugation at 12,000 x g for 5 minutes; aliquots were assayed for protein content and equal amounts of proteins were used for luciferase assays.
COS-7 cells were transfected with a human GR expression vector and the MMTV-luciferase reporter gene construct. A parallel set of plates was transfected with the constitutively active RSV-luciferase construct. […] Cells were lysed after 24 hours and assayed for luciferase activity.

in vitro = assay type: cell-based
Experimental: The cells were assayed for cell viability by using a cytoflowmeter (FACSCAN) after the cells were stained with propidium iodine. […]

PHA-stimulated T cells [1] = experiment: PHA-induced T cell proliferation (924 / wilforonide); assay type: cell-based; details: PHA 0.5 µg/ml, 3 days
From the text: The molecular groups responsible for the immune suppressive function of these compounds are unknown, however, the core structure of diterpenoids which may be related to their activity consists of an α-β-unsaturated 5 element lactone which can be identified by Kedde reagents. HPLC was used to fractionate the ethyl acetate extract of TwHF and the Kedde reagents were employed to trace the fractions. Then, the effect of selected fractions on the in vitro IL-2 production and [^3H]-thymidine incorporation by PHA-activated T cells was determined. Fractions that inhibit these T cell functions were selected and the chromatographic pattern was identified with HPLC. One fraction was further purified with HPLC and crystallized repeatedly; a pure, crystallized compound was obtained and designated "924".
[^3H]-thymidine was added for the last 14 hours of culture. Each concentration was run in quadruplicate (4 times) and the results for each concentration averaged to provide a mean. The mean cpm x 10^3 values were combined and expressed as a percent of T cell inhibition.

IL-2R = IL-2R expression by PHA-activated T cells (924); assay type: cell-based; details: 500 ng/ml
From the text: There was no effect of "924" on IL-2R expression by PHA-activated T cells.

Solubility of 924 = assay type: physicochemical; details: ethanol and chloroform
Experimental: The dried woody skinned part of the root of TwHF was extracted with ethanol. The solution was concentrated at reduced pressure, and the residue was dissolved in ethyl acetate. This solution was passed through Al2O3 with ethanol as an eluent. The eluate was evaporated and the residue chromatographed on silica gel with chloroform, chloroform-ether and ethyl acetate as successive eluent. The fractions eluted with chloroform-ether were purified on a preparative HPLC column packed with Nova-Pak C18 and equipped with a 214 detector. Methanol-water was the mobile phase. A fraction having positive reaction to Kedde reagent was collected and extracted with chloroform. The chloroform solution was evaporated to dryness and the residue crystallized in dichloromethane-hexane to yield 924.

PHA-stimulated T cells [2] = experiment: Viability of PHA-stimulated T cells (924); assay type: cell-based
Experimental: A 924 fraction concentration of 1,000 ng/ml was only slightly more toxic to cell viability as compared to the 0 ng/ml dose (see FIG. 20D, 0 ng/ml = 22% of control; 1,000 ng/ml fraction 924 = […] of control cell viability).

IL-2 = experiment: PHA-induced IL-2 production (wilforonide, CTLL-2 readout); assay type: cell-based; details: PHA 1 µg/ml, overnight
Experimental: The effects of wilforonide on IL-2 production was also examined. T cells were cultured with or without PHA(1 microgram/ml) in the presence or absence of 0 (control), 10 ng/ml, 50 ng/ml, 100 ng/ml or 200 ng/ml wilforonide overnight. Cell-free supernatants were diluted 1 to 80 and the IL-2 content assayed with CTLL-2 cells.

T cells = experiment: Antigen (SK)-induced T cell proliferation (wilforonide); assay type: cell-based
Experimental: T cells were cultured with or without SK (1 ng/ml) or SK + IL-2 (50 u/ml) or SK + PMA (0.2 ng/ml) in the presence or absence of the following concentrations of wilforonide: 10 ng/ml, 50 ng/ml, 100 ng/ml, 500 ng/ml or 1,000 ng/ml. The cells were allowed to culture for five days. The cultures were pulsed with [^3H]-thymidine for the last 24 hours of culture. […] ID50 were calculated based on the regression formula by using the fx-3600 calculator. T cells cultured with SK or SK + IL-2 or SK + PMA gave cpm of 1.87 x 10^3, 4.99 x 10^3 and 6.67 x 10^3, respectively.

U937 cells = experiment: PGE2 production by LPS-activated U937 cells; assay type: cell-based, human
From the text: This reflected marked suppression of the induction ofmRNA for cycloxygenase -2 (COX-2). […] This may contribute to its capacity to suppress autoimmune and inflammatory diseases.

cyclooxygenase 2 (COX-2) = experiment: LPS (endotoxin) induced PGE2 production by monocytes; assay type: cell-based, human; details: LPS 10 µg/ml, 18 hours
Experimental: After 18 hours of incubation, cell-free supernatants were collected and assayed for PGE2 content with a radioimmunoassay kit (Amersham), as described by the manufacturer. […] Human monocytes produce prostaglandinE2 (PGE2) when stimulated with bacterial endotoxin.

C[C@@H]1C[C@H]2[C@@H]3CCC4=CC(=O)C=C[C@]4(C)[C@@]3(F)[C@@H](O)C[C@]2(C)[C@@]1(O)C(=O)CO [dexamethasone]
[3H]-thymidine incorporation of IDH4 cells (IDH4 cells; dexamethasone 1 nM): 35,554 cpm | [3H]-thymidine incorporation of IDH4 cells (IDH4 cells; dexamethasone 10 nM): 52,937 cpm | [3H]-thymidine incorporation of IDH4 cells (IDH4 cells; dexamethasone 100 nM): 105,357 cpm | [3H]-thymidine incorporation of IDH4 cells (IDH4 cells; dexamethasone 1,000 nM): 96,677 cpm

CC(C)c1ccc2c(c1O)CC[C@H]1C3=C(CC[C@]21C)C(=O)OC3 [triptophenolide]
GR-mediated activation of target gene (MMTV-luciferase) (human GR): far less potent | dexamethasone dependent growth of IDH4 cells (IDH4 cells): less active

CC(C)[C@]12O[C@H]1[C@@H]1O[C@]13[C@]1(O[C@H]1C[C@H]1C4=C(CC[C@@]13C)C(=O)OC4)[C@@H]2O [triptolide]
more potent at inhibition of MMTV-luciferase induction than at binding inhibition (human GR; compared with GR ligand binding inhibition): more than an order of magnitude | GR-mediated activation of target gene (MMTV-luciferase) (human GR): inhibited | viability at 72 hr, 0.1 ng/ml (in vitro): 91.7% | viability at 72 hr, 10 ng/ml (in vitro): 35.8%

C[C@]12CCC3=C(COC3=O)[C@@H]1CCC(=O)C2 (relative stereo) [wilforonide, naphtho-[1,2-c] furan-3,7(1H,5H)-dione, 4,5a,6,8,9,9a-hexahydro-5a-methyl-(5aR-trans)-]
ID50, PHA-induced T cell proliferation (PHA-stimulated T cells [1]): 0.3913 µg/mL (≈ 1.78 µM) | cpm x 10^3 (experiments 1.-4.) (PHA-stimulated T cells [1]; Wilforonide 50 ng/ml): 57.0 cpm x 10^3 | IL-2R expression by PHA-activated T cells (IL-2R): did not affect | solubility (Solubility of 924): soluble | viability of PHA-stimulated T cells (PHA-stimulated T cells [2]; 1 ng/ml up to 1000 ng/ml): did not affect | cell viability (PHA-stimulated T cells [2]; 1,000 ng/ml): 35 % of control | ID50, PHA-induced IL-2 production (IL-2): 0.04211 µg/mL (≈ 0.191 µM) | ID50, antigen-induced T cell proliferation (T cells; SK): 0.12712 µg/mL (≈ 0.577 µM) | ID50, antigen-induced T cell proliferation (T cells; SK+IL-2): 0.476 µg/mL (≈ 2.16 µM) | ID50, antigen-induced T cell proliferation (T cells; SK+PMA): 0.613 µg/mL (≈ 2.78 µM)

CC(C)[C@]12O[C@H]1[C@@H]1O[C@]13[C@]1(O[C@H]1C[C@H]1C4=C(C(=O)OC4)[C@@H](O)C[C@@]13C)[C@@H]2O [tripdiolide]
GR-mediated activation of target gene (MMTV-luciferase) (human GR): inhibited | PGE2 production by LPS-activated U937 cells that do not express COX-2 (U937 cells): had effect | dexamethasone dependent growth of IDH4 cells (IDH4 cells): inhibited | LPS / endotoxin induced PGE2 production by monocytes (cyclooxygenase 2 (COX-2)): inhibited
